The values below come from ChEMBL document CHEMBL2321680, “High-Throughput Selectivity Assays for Small-Molecule Inhibitors of β-Catenin/T-Cell Factor Protein-Protein Interactions” (ACS Med Chem Lett, 2013).

In test [1] the target is T1, TCF4/beta-catenin (Homo sapiens, UniProt P35222+Q9NQB0). The test is described as follows: Inhibition of human […]/Tcf4 interaction after 1 hr by fluorescence polarization assay. The format is protein-complex assay. On the technique in general: In fluorescence polarisation assays a small probe gives low polarisation when free and higher when bound to something large.

The species named for test [2] is Homo sapiens. The test is described as follows: Selectivity ratio of Ki for human […]/APC-R3 interaction to Ki for human […]/Tcf4 interaction by fluorescence polarization assay.
Test [3] is filed under the species Homo sapiens. Briefly: Selectivity ratio of Ki for human […]/E-cadherin interaction to Ki for human […]/Tcf4 interaction by fluorescence polarization assay.
For test [4], the species on record is Homo sapiens. The test is described as follows: Selectivity ratio of Ki for human […]/APC-R3 interaction to Ki for human […]/Tcf4 interaction by alphascreen assay. For orientation: In Alpha technology, singlet oxygen from a donor bead excites a nearby acceptor bead.
For test [5], the species on record is Homo sapiens. Briefly: Selectivity ratio of Ki for human […]/E-cadherin interaction to Ki for human […]/Tcf4 interaction by alphascreen assay.
Test [6] deals with T1, TCF4/beta-catenin. Briefly: Inhibition of human beta-catenin/Tcf4 interaction after 1 hr by alphascreen assay.
The target of test [7] is Catenin beta-1/Adenomatous polyposis coli protein (Homo sapiens). The test is described as follows: Inhibition of human beta-catenin/APC-R3 interaction after 1 hr by alphascreen assay.
For test [8], the target named is Catenin beta-1/Cadherin-1 (Homo sapiens). The test is described as follows: Inhibition of human beta-catenin/E-cadherin interaction after 1 hr by alphascreen assay.
Test [9] concerns the target Catenin beta-1/Adenomatous polyposis coli protein (Homo sapiens). Briefly: Inhibition of human beta-catenin/APC-R3 interaction after 1 hr by fluorescence polarization assay.
Test [10] addresses Catenin beta-1/Cadherin-1 (Homo sapiens). The test is described as follows: Inhibition of human beta-catenin/E-cadherin interaction after 1 hr by fluorescence polarization assay.

T1 sequence (P35222 whole entry): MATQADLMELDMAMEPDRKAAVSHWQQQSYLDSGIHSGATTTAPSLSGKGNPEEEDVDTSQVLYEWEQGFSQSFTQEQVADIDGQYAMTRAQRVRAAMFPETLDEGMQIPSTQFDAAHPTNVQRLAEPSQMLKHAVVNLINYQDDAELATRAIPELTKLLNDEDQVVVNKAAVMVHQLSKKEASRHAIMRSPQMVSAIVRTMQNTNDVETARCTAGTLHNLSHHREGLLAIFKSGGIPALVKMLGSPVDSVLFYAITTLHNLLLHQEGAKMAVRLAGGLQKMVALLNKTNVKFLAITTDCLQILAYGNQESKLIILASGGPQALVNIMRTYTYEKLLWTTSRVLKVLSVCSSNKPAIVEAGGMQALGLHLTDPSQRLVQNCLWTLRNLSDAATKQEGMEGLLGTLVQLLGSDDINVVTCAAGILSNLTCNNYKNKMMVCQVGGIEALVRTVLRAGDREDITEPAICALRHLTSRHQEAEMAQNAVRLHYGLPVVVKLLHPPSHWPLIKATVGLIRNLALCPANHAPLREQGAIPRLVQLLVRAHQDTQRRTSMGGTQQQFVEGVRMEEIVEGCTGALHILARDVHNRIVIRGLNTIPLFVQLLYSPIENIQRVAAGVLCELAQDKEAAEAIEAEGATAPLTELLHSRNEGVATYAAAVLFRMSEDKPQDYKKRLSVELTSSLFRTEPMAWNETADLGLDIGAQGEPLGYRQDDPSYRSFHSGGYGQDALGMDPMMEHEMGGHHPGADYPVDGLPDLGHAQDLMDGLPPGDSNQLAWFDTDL
T1 sequence (Q9NQB0 whole entry): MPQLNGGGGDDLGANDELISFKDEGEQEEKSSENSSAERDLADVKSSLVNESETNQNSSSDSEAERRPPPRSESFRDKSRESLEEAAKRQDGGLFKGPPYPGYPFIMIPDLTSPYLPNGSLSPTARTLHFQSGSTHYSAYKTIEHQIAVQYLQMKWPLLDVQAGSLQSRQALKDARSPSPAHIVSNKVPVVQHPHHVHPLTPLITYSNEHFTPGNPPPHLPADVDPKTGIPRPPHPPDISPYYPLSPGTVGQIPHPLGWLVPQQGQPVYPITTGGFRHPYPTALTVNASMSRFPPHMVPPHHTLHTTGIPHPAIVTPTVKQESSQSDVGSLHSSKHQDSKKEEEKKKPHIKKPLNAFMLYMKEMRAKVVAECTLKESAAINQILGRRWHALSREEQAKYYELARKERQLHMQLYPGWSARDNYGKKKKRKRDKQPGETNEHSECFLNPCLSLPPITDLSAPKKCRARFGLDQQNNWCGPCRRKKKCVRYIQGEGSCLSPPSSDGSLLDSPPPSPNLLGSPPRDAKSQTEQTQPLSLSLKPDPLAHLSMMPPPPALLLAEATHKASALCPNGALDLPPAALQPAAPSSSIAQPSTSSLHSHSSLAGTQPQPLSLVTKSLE

Broadly, the Ki is a measure of affinity in units of concentration, obtained from inhibition or displacement. Regarding `COc1c(C[C@@H](C)OC(=O)Oc2ccc(O)cc2)c2c3c(C[C@@H](C)OC(=O)c4ccccc4)c(OC)c(=O)c4c(O)cc(OC)c(c5c(OC)cc(O)c(c1=O)c52)c43` [CALPHOSTIN C], on TCF4/beta-catenin [1], the affinity corresponds to a Ki of 18 µM. This lies in the double-digit micromolar range.

For the molecule `C=CCN1C(=O)/C(=N\NC(=O)C(=O)Nc2cccc(C(=O)O)c2)c2ccccc21`, the Ratio Ki in the test listed under Homo sapiens [2] was found to be 25; in the test listed under Homo sapiens [3], 16.3; in the test filed under Homo sapiens [4] it was 10.5; in the test filed under Homo sapiens [5], 3.3. Moreover, the inhibition constant Ki came out at 16 µM on TCF4/beta-catenin [1]; 21 µM at TCF4/beta-catenin [6]; 220 µM in test [7]; 68 µM in test [8]; 400 µM in test [9]; 260 µM in test [10].

Consider `COc1cccc(/C=C2/SC(=S)N(CCC(=O)O)C2=O)c1OC`, for which the Ratio Ki in the test listed under Homo sapiens [4] came out at 3.8; in the test filed under Homo sapiens [5], 4.8. Moreover, the Ki at TCF4/beta-catenin [6] was 29 µM; in test [7], 110 µM; in [8] it was 140 µM.
